Source: article PMC11302339, “A series of pyrimidine-based antifungals with anti-mold activity disrupt ER function in Aspergillus fumigatus” (Microbiology Spectrum, 2024)
≈ marks a conversion by molar mass, not a printed value. Marks after values point to notes of the source that are not given here.

What was measured:
A. terreus = test: MIC testing (CLSI broth dilution); assay type: cell-based, Aspergillus terreus
Protocol: (§1) MICs were determined using Clinical and Laboratory Standards Institute guidelines ([48], [49]). All yeasts were cultured overnight in 3 mL YPD at 30°C, then washed twice in sterile phosphate-buffered saline (PBS). Twofold serial dilutions of each drug were prepared in RMPI + MOPS, then 1 × 10^3 cells were added per well. For mold species, wells were inoculated with 1.25 × 10^3 conidia per well. Plates were incubated at 37°C for 24 (Candida spp. and S. cerevisiae), 48 (Aspergillus spp., M. circinelloides, S. apiospermum, and L. prolificans), or 72 (C. neoformans and F. oxysporum) hours. S. cerevisiae BY4743 MICs were tested in YPD due to nutritional requirements of this strain. Each assay was performed in technical duplicate in at least two independent experiments performed on different days.

C. auris = test: MIC testing (CLSI broth dilution); assay type: cell-based, Candida auris; details: Candidozyma auris, CLSI conditions
Protocol: as §1

[1] = tested on: Saccharomyces cerevisiae BY4741; test: Generation of resistant isolates (serial passaging); assay type: cell-based; details: from 1/4 MIC, twofold increases, at least 50 generations
Protocol: Finally, we attempted to generate resistant isolates to understand the rate of resistance and potentially uncover mechanism of action. First, to determine spontaneous rates, we performed high-density plating (~2 × 10^9 cells) of C. neoformans on YPD plates containing 64 µg/mL 1 ([24]). […] Next, we employed serial passaging of both C. neoformans H99 and Saccharomyces cerevisiae BY4741 to evaluate evolved resistance upon exposure to sub-MIC concentrations. Yeast cells were grown in a 96-well format in the presence of 1/4 MIC 1, then cultures were passaged to fresh media containing a twofold increase in drug concentration. At each passage, the inoculum was diluted ~1:100 to allow ~10 generations of growth for a total of at least 50 generations over the course of the experiment.

[2] = tested on: A. fumigatus UPR-responsive genes; test: A. fumigatus UPR gene expression (qRT-PCR); assay type: cell-based, Aspergillus fumigatus
Protocol: We cultured 5 × 10^6 CEA10 conidia/mL in liquid GMM for 18 hours at 37°C with shaking at 250 rpm. Cultures were treated with either DMSO or 16 µg/mL 1 for 2 hours at 37°C, 250 rpm. Then 1 mM DTT or water was added, and cultures were incubated for an additional hour. Mycelia were collected with vacuum filtration and immediately frozen with liquid nitrogen. Tissue was lyophilized then ground with glass beads with a bead beater. RNA was extracted in 1 mL of TRIazole solution (Life Technologies, Cat # 15596026), then RNA was purified with two rounds of chloroform extraction. Five micrograms of RNA was treated with TURBO DNA-free kit (Invitrogen, Cat # AM1907) according to the manufacturer’s protocol. Five hundred nanograms of DNAse-treated RNA was used for cDNA synthesis with iScript cDNA synthesis kit (BioRad, Cat # 1708891), then cDNA was diluted 1:5 with ddH2O. Quantitative real time PCR analysis was performed in 20 µL reactions using 2 µL of dilute cDNA per reaction with iQ SYBR Green Supermix (BioRad). Samples were run on a BioRad CFX Connect using a three-step amplification with 54°C annealing temperature and melt curve analysis. Gene expression is normalized to tubA and tef1 expression. Gene expression was performed in biological triplicate. Primers to detect HacA splicing and targets were designed as previously described ([51]).

[3] = tested on: C. neoformans MAPK mutants; test: C. neoformans competition assay with MAPK mutants; assay type: cell-based, Cryptococcus neoformans; details: 1.5 µg/mL 1, 24 hours, 37°C
Protocol: H99-mNeon and MAPK mutants (obtained from the C. neoformans kinase deletion collection, FGSC) were grown overnight in YPD at 30°C then washed in PBS. Each strain was counted and diluted into 96-well plates such that each well contained 1 × 10^3 CFU/strain with 1.5 µg/mL 1 or DMSO in 100 µL total volume. Plates were incubated at 37°C for 24 hours before analyzing on an Attune NxT Flow Cytometer with CytKick autosampler and Attune Cytometric software. Gating strategy was optimized for single cells as previously described ([50]). mNeonGreen positive and negative populations were identified by histogram plot with 100,000 cells counted per sample. Data represent mean and SD of biological triplicate and are representative of two independent experiments.

A549 cells = test: Cytotoxicity by LDH release; assay type: cell-based, human; details: A549, 24 hours
Protocol: (§2) HepG2 [American Type Culture Collection (ATCC), HB-8065], HeLa (ATCC, CCL-2), and A549 (ATCC, CCL-185) cells were maintained and cultured in Dulbecco’s modified Eagle medium (Gibco, Cat # 11965–092) with 10% FBS and 1% penicillin/streptomycin at 37°C with 5% CO2. Cells were seeded in 96-well plates at a density of 1.25 × 10^4 cells/well and incubated overnight at 37°C with 5% CO2; then, media were removed and replaced with media containing a twofold drug dilution series with equal DMSO across all wells. Cells were incubated for an additional 24 hours, then the supernatant was removed and used to quantify lactate dehydrogenase release using the CyQuant LDH assay kit (Invitrogen, Cat # C20300) following the manufacturers’ directions. LDH was normalized to a maximum lysis control treated with Triton-X. HeLa and A549 cells were purchased in 2023, and the cells used for these studies were directly from fresh vials. HepG2 cells for these studies were used from a fresh, low passage (P3) vial saved directly from purchased stocks.

HeLa cells = test: Cytotoxicity by LDH release; assay type: cell-based, human; details: 24 hours
Protocol: as §2

HepG2 cells = test: Cytotoxicity by LDH release; assay type: cell-based, human; details: HepG2, 24 hours
Protocol: as §2

[4] = combination: 16 µg/mL 1 for 2 hours, then 1 mM DTT for 1 hour
[5] = single agent (16 µg/mL 1, or 1 mM DTT for 1 hour), normalized to DMSO

OC1CC(c2cc(N3CCC(CCc4ccccc4)CC3)ncn2)C1 (stereo not shown) [compound 1]
MIC (A. terreus; Aspergillus terreus, strain S010, clinical isolate, CLSI conditions): 8 mg/L (≈ 23.7 µM)
Minimum effective concentration (MEC) (A. terreus; strain S023, clinical isolate, no clear well, growth reduced by ≥50% at MEC): 16^b µg/mL
MIC (C. auris; strain 0390): > 128 mg/L
MIC (C. auris; strain 3081, drug-resistant clinical isolate): 8 mg/L (≈ 23.7 µM)
evolved resistance, serial passaging [1]: did not recover stable resistance
increase in HacA^A splicing [2, 4]: 17 fold
increase in HacA^B [2, 4]: 3 fold
increase in BipA expression [2, 5]: 2 fold
increase in PdiA expression [2, 5]: no change
increase of spliced HacA (HacA^A) [2, 5]: about threefold
reduction of mutant in competition with H99-GFP ([3]; ∆hog1): 20%
reduction of mutant in competition with H99-GFP ([3]; ∆pbs2): 60%
reduction of mutant in competition with H99-GFP ([3]; ∆ssk2): 63%
LD50 (LDH release) (A549 cells): 198 µg/mL
LD50 (LDH release) (HeLa cells): 146 µg/mL
LD50 (LDH release) (HepG2 cells): 111 µg/mL
